Experimental data reported in patent publication US20220233503A1, “METHODS OF TREATING SEPSIS WITH SYNAPTIC VESICLE 2A AND/OR 2B BINDING CHEMICAL ENTITIES” (INSTITUT PASTEUR, priority 2016, published 2022).
Like-named read-outs stand apart in the source and are kept apart here.

Legend:
[1] = system: Inducible NO synthase gene (inos); type: cell-based, murine; conditions: 24 hours
Description: NO: 53) and anti-sense primer:[…] NO: 54). […] ID NO: 55) and anti-sense primer […] NO: 56). […] NO: 57) and anti-sense primer:[…] NO: 58).

[2] = system: microglial cells; test: Morphological analysis of microglial cells (Iba-1 staining) after sepsis; type: in vivo, mice
Protocol: Immunohistochemistry: Mice were perfused through left ventricule with paraformaldehyde 4% and the collected brains with small forceps. Brain were fixed overnight with PFA 4% and then cut in 100 μm sagittal slices with a vibratome VT1200S (Leica, Germany). Ionized calcium binding adaptor type 1 immunohistochemistry. Brain sections were washed with PBS and aspecific binding sites were saturated with a bovine serum albumine 3% in PBS solution for 4 hours. Then primary antibody (Rabbit, Wako, 40 ng/μl) was applied for 24 hours at 4° C. under constant agitation. Cyanine 3 secondary antibody (Donkey anti-Rabbit) and Hoechst 33342 (1/4000) was then applied overnight at 4° C. with constant agitation.
Imaging of samples was realized in a medium throughput spinning disk confocal microscope (CV1000) on 5×5 mozaics reconstructed with an overlap of 50% to avoid signal intensity lowering on the edge of tiles. Stitching was realized using a homemade macro with the Grid/collection plugin for Fiji channel by channel and then manually realligned if necessary. Automated analysis of microglial cell was realized on Iba1 staining. Automatic local contrast thresholding using Phanshalkar algorithm with a radius of 2 μm was performed for microglia channel, and with a radius of 12 μm for nuclei channel. Microglial cells were identified using a fixed empirical threshold for percentage of perinuclear area stained by Iba-1 using thresholded image. Only individual microglial cells obtained after segmentation with a tridimensionnal watershed algorithm were furthered considered for analysis. Morphometric study of microglial cells were performed using mcib3d plugin for FIJI. Concentric envelopes were computed starting 1 μm after nuclear envelope to analyze the number of microglial process crossing this sphere and reproduce a conformational tridimensional analysis on microglial cells.
Individual and summarized data were then analyzed in R statistics. Area under the curve of number of microglial processes. When covariant variables were identified, the most relevant was considered.
FIG. 3 (G, H, I). […]

## CC[C@@H](C(N)=O)N1CCCC1=O (single isomer, unassigned) [levetiracetam]
[1]; high dose LPS challenge
  inos expression: failed to modulate
[1]; high dose levetiracetam, low dose LPS challenge
  inos expression: lowered
[2]; 4 main components of 107 morphological criteria, septic mice
  principal components of microglial morphology: different
[2]; 6 hours after sepsis, CeA and B1A
  microglial cell morphological changes: decreased
[2]; 15 days after sepsis
  number of microglial cell processes: increased dramatically
